Patent US20230355646A1, “AUTOPHAGY ACTIVATOR” (Resonac Corporation, priority 2020, published 2023)

Legend:
Type in all cases: cell-based
LC3 gene = LC3 gene expression promoting effect in human senescent fibroblasts (quantitative real-time PCR)
Method: (§1) Normal human fibroblasts (NB1RGB, RIKEN BRC Cell Bank) were cultured until confluent in D-MEM medium (manufactured by Sigma-Aldrich) to which 10% fetal bovine serum (manufactured by MP Biomedicals) was added. Thereafter, the cells were treated with 250 μM aqueous hydrogen peroxide for 2 hours, and cultured for 24 hours in D-MEM medium to which fresh 10% fetal bovine serum was added. The treatment with aqueous hydrogen peroxide and the cell culture operation were repeated three times, and the obtained fibroblasts were used as senescent fibroblasts.
(§2) The prepared senescent fibroblasts were prepared at a seeding density of 10000 cells/cm^2 and cultured for 24 hours in D-MEM medium (manufactured by Sigma-Aldrich) to which 10% fetal bovine serum (manufactured by MP Biomedicals) was added. […]
(§3) Then, using Nucleospin (registered trademark) RNA kit (manufactured by Takara Bio Inc.), RNA was extracted from senescent fibroblasts or normal human fibroblasts in each example, and cDNA was synthesized from the obtained RNA. Next, using this cDNA as a template, by quantitative real-time PCR, the expression level of each gene was quantified using primers (manufactured by Takara Bio Inc.) specific to the LC3 gene, ATG5 gene, and ATG7 gene, respectively. […]

ATG5 gene = ATG5 gene expression promoting effect in human senescent fibroblasts (quantitative real-time PCR)
Method: as §1, §2, §3

ATG7 gene = ATG7 gene expression promoting effect in human senescent fibroblasts (quantitative real-time PCR)
Method: as §1, §2, §3

[1] = 10^−2% (V/V) methyl hesperidin or hesperidin, additional ingredient where in the example, 24 hours, Comparative Example 1 (DMSO) = 1.00
[2] = compared to DMSO only of Comparative Example 1

SMILES: COc1ccc([C@@H]2CC(=O)c3c(O)cc(O[C@@H]4O[C@H](CO[C@@H]5O[C@@H](C)[C@H](O)[C@@H](O)[C@H]5O)[C@@H](O)[C@H](O)[C@H]4O)cc3O2)cc1O [Comparative Example 2, hesperidin]
- Relative gene expression level LC3 (LC3 gene; [1]): <0
- expression level of the LC3 gene (in words) (LC3 gene; [2]): more decreased
- Relative gene expression level ATG5 (ATG5 gene; [1]): 0.93
- expression level of the ATG5 gene (in words) (ATG5 gene; [2]): more decreased
- Relative gene expression level ATG7 (ATG7 gene; [1]): 0.76
- expression level of the ATG7 gene (in words) (ATG7 gene; [2]): more decreased
